Tested on: Echinochloa crus-galli
Test: Post emergence herbicidal activity against Echinochloa crus-galli (barnyard grass) seedlings assessed as plant growth inhibition at 150 g ai/ha measured 15 days after compound treatment under greenhouse conditions
Assay type: functional
Settings: 360 h, read-out: GI

Row | Compound | inhibition of growth at 150 g/ha [%]
1 | COC(=O)Sc1nc2cc(-n3nc(C)n(C(F)F)c3=O)c(Cl)cc2s1 | < 50
2 | CSc1nc2cc(-n3nc(C)n(C(F)F)c3=O)c(F)cc2s1 | 50
3 | CCCCSc1nc2cc(-n3nc(C)n(C(F)F)c3=O)c(F)cc2s1 | 60
4 | COC(=O)CSc1nc2cc(-n3nc(C)n(C(F)F)c3=O)c(F)cc2s1 | ≥ 90

Tested on: Setaria faberi
Test: Post-emergence herbicidal activity against Setaria faberi (Giant Foxtail) seedlings assessed as plant growth inhibition at 75 g ai/ha measured 15 days after compound treatment under greenhouse conditions
Assay type: functional
Settings: 360 h, read-out: GI

Row | Compound | inhibition of growth at 75 g/ha [%]
5 | COC(=O)CSc1nc2cc(-n3nc(C)n(C(F)F)c3=O)c(F)cc2s1 | 60

Tested on: Amaranthus retroflexus
Test: Post emergence herbicidal activity against Amaranthus retroflexus seedlings assessed as plant growth inhibition at 150 g ai/ha measured 15 days after compound treatment under greenhouse conditions
Assay type: functional
Settings: 360 h, read-out: GI

Row | Compound | inhibition of growth at 150 g/ha [%]
6 | COC(=O)Sc1nc2cc(-n3nc(C)n(C(F)F)c3=O)c(Cl)cc2s1 | < 50
7 | CSc1nc2cc(-n3nc(C)n(C(F)F)c3=O)c(F)cc2s1 | 80
8 | CCCCSc1nc2cc(-n3nc(C)n(C(F)F)c3=O)c(F)cc2s1 | 60
9 | COC(=O)CSc1nc2cc(-n3nc(C)n(C(F)F)c3=O)c(F)cc2s1 | ≥ 90

Tested on: Chenopodium album
Test: Post-emergence herbicidal activity against Chenopodium album seedlings assessed as plant growth inhibition at 150 g ai/ha measured 15 days after compound treatment under greenhouse conditions
Assay type: functional
Settings: 360 h, read-out: GI

Row | Compound | inhibition of growth at 150 g/ha [%]
10 | COC(=O)Sc1nc2cc(-n3nc(C)n(C(F)F)c3=O)c(Cl)cc2s1 | < 50
11 | CSc1nc2cc(-n3nc(C)n(C(F)F)c3=O)c(F)cc2s1 | < 50
12 | CCCCSc1nc2cc(-n3nc(C)n(C(F)F)c3=O)c(F)cc2s1 | < 50
13 | COC(=O)CSc1nc2cc(-n3nc(C)n(C(F)F)c3=O)c(F)cc2s1 | ≥ 90

Tested on: Chenopodium album
Test: Post-emergence herbicidal activity against Chenopodium album seedlings assessed as plant growth inhibition at 75 g ai/ha measured 15 days after compound treatment under greenhouse conditions
Assay type: functional
Settings: 360 h, read-out: GI

Row | Compound | inhibition of growth at 75 g/ha [%]
14 | COC(=O)CSc1nc2cc(-n3nc(C)n(C(F)F)c3=O)c(F)cc2s1 | ≥ 90

Tested on: Chenopodium album
Test: Post-emergence herbicidal activity against Chenopodium album seedlings assessed as plant growth inhibition at 37.5 g ai/ha measured 15 days after compound treatment under greenhouse conditions
Assay type: functional
Settings: 360 h, read-out: GI

Row | Compound | inhibition of growth at 37.5 g/ha [%]
15 | COC(=O)CSc1nc2cc(-n3nc(C)n(C(F)F)c3=O)c(F)cc2s1 | < 50

Tested on: Amaranthus retroflexus
Test: Post emergence herbicidal activity against Amaranthus retroflexus seedlings assessed as plant growth inhibition at 75 g ai/ha measured 15 days after compound treatment under greenhouse conditions
Assay type: functional
Settings: 360 h, read-out: GI

Row | Compound | inhibition of growth at 75 g/ha [%]
16 | COC(=O)CSc1nc2cc(-n3nc(C)n(C(F)F)c3=O)c(F)cc2s1 | ≥ 90

Tested on: Echinochloa crus-galli
Test: Post emergence herbicidal activity against Echinochloa crus-galli (barnyard grass) seedlings assessed as plant growth inhibition at 75 g ai/ha measured 15 days after compound treatment under greenhouse conditions
Assay type: functional
Settings: 360 h, read-out: GI

Row | Compound | inhibition of growth at 75 g/ha [%]
17 | COC(=O)CSc1nc2cc(-n3nc(C)n(C(F)F)c3=O)c(F)cc2s1 | 60

Target: T1, Protoporphyrinogen oxidase, chloroplastic (Nicotiana tabacum, UniProt O24163)
T1 sequence (O24163 whole entry): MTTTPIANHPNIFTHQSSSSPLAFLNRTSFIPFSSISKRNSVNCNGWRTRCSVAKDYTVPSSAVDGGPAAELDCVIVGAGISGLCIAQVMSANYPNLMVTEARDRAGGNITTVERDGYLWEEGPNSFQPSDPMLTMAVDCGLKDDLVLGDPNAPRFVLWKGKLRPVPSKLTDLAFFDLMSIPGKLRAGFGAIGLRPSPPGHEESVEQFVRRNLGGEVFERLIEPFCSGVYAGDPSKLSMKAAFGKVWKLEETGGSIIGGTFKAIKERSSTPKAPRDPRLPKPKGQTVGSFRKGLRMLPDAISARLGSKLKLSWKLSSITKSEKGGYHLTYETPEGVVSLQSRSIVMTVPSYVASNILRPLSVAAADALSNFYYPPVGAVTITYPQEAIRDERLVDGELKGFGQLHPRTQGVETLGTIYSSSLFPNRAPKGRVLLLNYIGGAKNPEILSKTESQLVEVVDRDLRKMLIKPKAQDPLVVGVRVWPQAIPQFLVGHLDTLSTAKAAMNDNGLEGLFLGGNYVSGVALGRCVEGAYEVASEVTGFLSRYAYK
Test: Inhibition of Nicotiana tabacum (tobacco) recombinant PPO assessed as protoporphyrin IX formation at room temperature by fluorimetric assay
Settings: not given

Row | Ki [nM] | Compound
18 | 510 | CSc1nc2cc(-n3nc(C)n(C(F)F)c3=O)c(F)cc2s1
19 | 1080 | COC(=O)CSc1nc2cc(-n3nc(C)n(C(F)F)c3=O)c(F)cc2s1

Row | Compound | Ki [nM]
20 | CCCCSc1nc2cc(-n3nc(C)n(C(F)F)c3=O)c(F)cc2s1 | 210

Tested on: Setaria faberi
Test: Post-emergence herbicidal activity against Setaria faberi (Giant Foxtail) seedlings assessed as plant growth inhibition at 150 g ai/ha measured 15 days after compound treatment under greenhouse conditions
Assay type: functional
Settings: 360 h, read-out: GI

Row | Compound | inhibition of growth at 150 g/ha [%]
21 | COC(=O)Sc1nc2cc(-n3nc(C)n(C(F)F)c3=O)c(Cl)cc2s1 | < 50
22 | CSc1nc2cc(-n3nc(C)n(C(F)F)c3=O)c(F)cc2s1 | 50
23 | CCCCSc1nc2cc(-n3nc(C)n(C(F)F)c3=O)c(F)cc2s1 | 80
24 | COC(=O)CSc1nc2cc(-n3nc(C)n(C(F)F)c3=O)c(F)cc2s1 | ≥ 90

Tested on: Amaranthus retroflexus
Test: Post emergence herbicidal activity against Amaranthus retroflexus seedlings assessed as plant growth inhibition at 37.5 g ai/ha measured 15 days after compound treatment under greenhouse conditions
Assay type: functional
Settings: 360 h, read-out: GI

Row | Compound | inhibition of growth at 37.5 g/ha [%]
25 | COC(=O)CSc1nc2cc(-n3nc(C)n(C(F)F)c3=O)c(F)cc2s1 | ≥ 90

Tested on: Brassica juncea
Test: Post-emergence herbicidal activity against Brassica juncea seedlings assessed as plant growth inhibition at 37.5 g ai/ha measured 15 days after compound treatment under greenhouse conditions
Assay type: functional
Settings: 360 h, read-out: GI

Row | Compound | inhibition of growth at 37.5 g/ha [%]
26 | COC(=O)CSc1nc2cc(-n3nc(C)n(C(F)F)c3=O)c(F)cc2s1 | 60

Tested on: Digitaria sanguinalis
Test: Post-emergence herbicidal activity against Digitaria sanguinalis (hairy crabgrass) seedlings assessed as plant growth inhibition at 37.5 g ai/ha measured 15 days after compound treatment under greenhouse conditions
Assay type: functional
Settings: 360 h, read-out: GI

Row | Compound | inhibition of growth at 37.5 g/ha [%]
27 | COC(=O)CSc1nc2cc(-n3nc(C)n(C(F)F)c3=O)c(F)cc2s1 | < 50

Tested on: Digitaria sanguinalis
Test: Post-emergence herbicidal activity against Digitaria sanguinalis (hairy crabgrass) seedlings assessed as plant growth inhibition at 75 g ai/ha measured 15 days after compound treatment under greenhouse conditions
Assay type: functional
Settings: 360 h, read-out: GI

Row | Compound | inhibition of growth at 75 g/ha [%]
28 | COC(=O)CSc1nc2cc(-n3nc(C)n(C(F)F)c3=O)c(F)cc2s1 | < 50

Tested on: Setaria faberi
Test: Post-emergence herbicidal activity against Setaria faberi (Giant Foxtail) seedlings assessed as plant growth inhibition at 37.5 g ai/ha measured 15 days after compound treatment under greenhouse conditions
Assay type: functional
Settings: 360 h, read-out: GI

Row | Compound | inhibition of growth at 37.5 g/ha [%]
29 | COC(=O)CSc1nc2cc(-n3nc(C)n(C(F)F)c3=O)c(F)cc2s1 | 60

Tested on: Echinochloa crus-galli
Test: Post emergence herbicidal activity against Echinochloa crus-galli (barnyard grass) seedlings assessed as plant growth inhibition at 37.5 g ai/ha measured 15 days after compound treatment under greenhouse conditions
Assay type: functional
Settings: 360 h, read-out: GI

Row | Compound | inhibition of growth at 37.5 g/ha [%]
30 | COC(=O)CSc1nc2cc(-n3nc(C)n(C(F)F)c3=O)c(F)cc2s1 | 60

Tested on: Digitaria sanguinalis
Test: Post-emergence herbicidal activity against Digitaria sanguinalis (hairy crabgrass) seedlings assessed as plant growth inhibition at 150 g ai/ha measured 15 days after compound treatment under greenhouse conditions
Assay type: functional
Settings: 360 h, read-out: GI

Row | Compound | inhibition of growth at 150 g/ha [%]
31 | COC(=O)Sc1nc2cc(-n3nc(C)n(C(F)F)c3=O)c(Cl)cc2s1 | < 50
32 | CSc1nc2cc(-n3nc(C)n(C(F)F)c3=O)c(F)cc2s1 | < 50
33 | CCCCSc1nc2cc(-n3nc(C)n(C(F)F)c3=O)c(F)cc2s1 | 80
34 | COC(=O)CSc1nc2cc(-n3nc(C)n(C(F)F)c3=O)c(F)cc2s1 | ≥ 90

Tested on: Brassica juncea
Test: Post-emergence herbicidal activity against Brassica juncea seedlings assessed as plant growth inhibition at 150 g ai/ha measured 15 days after compound treatment under greenhouse conditions
Assay type: functional
Settings: 360 h, read-out: GI

Row | Compound | inhibition of growth at 150 g/ha [%]
35 | COC(=O)Sc1nc2cc(-n3nc(C)n(C(F)F)c3=O)c(Cl)cc2s1 | < 50
36 | CSc1nc2cc(-n3nc(C)n(C(F)F)c3=O)c(F)cc2s1 | < 50
37 | CCCCSc1nc2cc(-n3nc(C)n(C(F)F)c3=O)c(F)cc2s1 | 60
38 | COC(=O)CSc1nc2cc(-n3nc(C)n(C(F)F)c3=O)c(F)cc2s1 | ≥ 90

Tested on: Brassica juncea
Test: Post-emergence herbicidal activity against Brassica juncea seedlings assessed as plant growth inhibition at 75 g ai/ha measured 15 days after compound treatment under greenhouse conditions
Assay type: functional
Settings: 360 h, read-out: GI

Row | Compound | inhibition of growth at 75 g/ha [%]
39 | COC(=O)CSc1nc2cc(-n3nc(C)n(C(F)F)c3=O)c(F)cc2s1 | ≥ 90

From ChEMBL document CHEMBL3046000, “Design and synthesis of 1-(benzothiazol-5-yl)-1H-1,2,4-triazol-5-ones as protoporphyrinogen oxidase inhibitors” (Bioorg Med Chem, 2013)
